Consider five compounds from patent US20250368649A1, “TETRAHYDROPYRIDOPYRIMIDINE PAN-KRAS INHIBITORS” (Mirati Therapeutics, Inc., priority 2022, published 2025).

Test [1] has as its target KRas WT (Homo sapiens, UniProt P01116). Briefly: KRas binding assay (TR-FRET displacement), KRas WT. Particulars: single point, 10 nM compound.
For test [2], the target named is KRas G12A (Homo sapiens, UniProt P01116, G12A). Type of test: binding. The conditions noted are these: single point, 10 nM compound, read-out: Binding to KRas (% inhibition at 10 nM) G12A.
Test [3] addresses KRas G12C (Homo sapiens, UniProt P01116, G12C). Format: binding. The conditions noted are these: single point, 10 nM compound, read-out: Binding to KRas (% inhibition at 10 nM) G12C.
The target in test [4] is KRas G12S (Homo sapiens, UniProt P01116, G12S). Type of test: binding. The conditions noted are these: single point, 10 nM compound, read-out: Binding to KRas (% inhibition at 10 nM) G12S.
Test [5] deals with KRas G13D (Homo sapiens, UniProt P01116, G13D). Format: binding. Particulars: single point, 10 nM compound, read-out: Binding to KRas (% inhibition at 10 nM) G13D.
The target in test [6] is KRas Q61H (Homo sapiens, UniProt P01116, Q61H). Put plainly: KRas binding assay (TR-FRET displacement), KRas Q61H. The conditions noted are these: single point, 10 nM compound.
The subject of test [7] is MKN1 cells. Put plainly: Inhibition of KRas-mediated phosphorylation of ERK (Cisbio HTRF pERK), MKN1 cells. Format: cell-based. Particulars: Homo sapiens, MKN-1, 3 hour compound incubation, Cisbio pERK HTRF. The essentials:
(§1)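 Seeding density of 6,000 cells per well was used, with cultures kept in RPMI/10% FBS from day 1.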
Background: TR-FRET usually uses a lanthanide donor and a delayed reading to cut background.

For test [8], the system named is PSN1 cells. Briefly: Inhibition of KRas-mediated phosphorylation of ERK (Cisbio HTRF pERK), PSN1 cells. The conditions noted are these: Homo sapiens, PSN1, 3 h, 3 hour compound incubation, Cisbio pERK HTRF. Format: cell-based. Summed up:
as §1

Test [9] deals with ASPC1 cells. Put plainly: Inhibition of KRas-mediated phosphorylation of ERK (Cisbio HTRF pERK), ASPC1 cells. Format: cell-based. The conditions noted are these: Homo sapiens, AsPC-1 cells; for IC50: ASPC1, 3 h, 3 hr compound incubation, Cisbio pERK HTRF.
The test system of test [10] is H727 cells. Briefly: Inhibition of KRas-mediated phosphorylation of ERK (Cisbio HTRF pERK), H727 cells. Type of test: cell-based. The conditions noted are these: Homo sapiens; for IC50: NCI-H727, 3 h, 3 hr compound incubation, Cisbio pERK HTRF.
In test [11] the test system is A549 cells. Put plainly: Inhibition of KRas-mediated phosphorylation of ERK (Cisbio HTRF pERK), A549 cells. Format: cell-based. The conditions noted are these: Homo sapiens; for IC50: A549, 3 h, 3 hr compound incubation, Cisbio pERK HTRF; for inhibition at 0.1 µM: single point at 100 nM, 3 hrs compound incubation.
Test [12] concerns H460 cells. Put plainly: Inhibition of KRas-mediated phosphorylation of ERK (Cisbio HTRF pERK), H460 cells. Particulars: Homo sapiens; for IC50: NCI-H460, 3 h, 3 hr compound incubation, Cisbio pERK HTRF. Format: cell-based.
Test [13] has as its system HCT116 cells. Put plainly: Inhibition of KRas-mediated phosphorylation of ERK (Cisbio HTRF pERK), HCT116 cells. Type of test: cell-based. The conditions noted are these: Homo sapiens; for IC50: HCT-116, 3 h, 3 hr compound incubation, Cisbio pERK HTRF.
Test [14] concerns H358 cells. Put plainly: Inhibition of KRas-mediated phosphorylation of ERK (Cisbio HTRF pERK), H358 cells. Type of test: cell-based. Particulars: Homo sapiens; for IC50: NCI-H358, 3 h, 3 hr compound incubation, Cisbio pERK HTRF; for inhibition at 0.1 µM: NCI-H358, single point at 100 nM, 3 hrs compound incubation.
Test [15] addresses KRas G12D (Homo sapiens, UniProt P01116, G12D). Put plainly: biochemical. Particulars: Binding to KRas (IC50 nM) G12D, TR-FRET displacement, KRas G12D.
Test [16] addresses KRas G12R (Homo sapiens, UniProt P01116, G12R). Put plainly: biochemical. Particulars: Binding to KRas (IC50 nM) G12R, TR-FRET displacement, KRas G12R.
The target of test [17] is KRas G12V (Homo sapiens, UniProt P01116, G12V). Briefly: biochemical. Particulars: Binding to KRas (IC50 nM) G12V, TR-FRET displacement, KRas G12V.
Sequence of KRas G12V (P01116 1-169 isoform P01116-2 G12V): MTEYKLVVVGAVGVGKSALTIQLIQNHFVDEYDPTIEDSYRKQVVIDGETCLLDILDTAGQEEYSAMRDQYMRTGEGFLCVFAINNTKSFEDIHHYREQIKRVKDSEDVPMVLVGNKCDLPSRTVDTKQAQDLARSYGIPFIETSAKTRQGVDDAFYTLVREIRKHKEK

Sequence of KRas G12C (P01116 1-169 isoform P01116-2 G12C): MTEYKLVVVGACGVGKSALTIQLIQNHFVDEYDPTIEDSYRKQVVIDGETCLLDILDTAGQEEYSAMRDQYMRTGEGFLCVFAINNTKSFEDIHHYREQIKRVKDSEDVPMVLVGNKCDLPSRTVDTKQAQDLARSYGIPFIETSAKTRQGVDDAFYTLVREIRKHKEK
Sequence of KRas G12S (P01116 1-169 isoform P01116-2 G12S): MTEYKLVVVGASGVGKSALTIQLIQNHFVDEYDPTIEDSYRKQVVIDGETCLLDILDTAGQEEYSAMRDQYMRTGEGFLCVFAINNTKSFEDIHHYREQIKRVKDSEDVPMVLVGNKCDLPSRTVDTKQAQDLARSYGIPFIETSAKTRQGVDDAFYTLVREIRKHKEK
Sequence of KRas WT (P01116 1-169 isoform P01116-2): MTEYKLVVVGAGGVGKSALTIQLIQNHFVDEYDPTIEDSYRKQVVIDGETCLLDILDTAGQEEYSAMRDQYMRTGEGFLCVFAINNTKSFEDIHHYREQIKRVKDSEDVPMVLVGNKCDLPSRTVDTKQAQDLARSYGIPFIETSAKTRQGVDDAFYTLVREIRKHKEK
Sequence of KRas Q61H (P01116 1-169 isoform P01116-2 Q61H): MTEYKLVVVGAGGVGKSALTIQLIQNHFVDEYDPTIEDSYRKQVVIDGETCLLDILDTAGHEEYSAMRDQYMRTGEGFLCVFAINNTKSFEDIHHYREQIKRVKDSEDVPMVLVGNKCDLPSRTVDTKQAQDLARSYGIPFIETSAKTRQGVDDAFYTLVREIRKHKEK
Sequence of KRas G13D (P01116 1-169 isoform P01116-2 G13D): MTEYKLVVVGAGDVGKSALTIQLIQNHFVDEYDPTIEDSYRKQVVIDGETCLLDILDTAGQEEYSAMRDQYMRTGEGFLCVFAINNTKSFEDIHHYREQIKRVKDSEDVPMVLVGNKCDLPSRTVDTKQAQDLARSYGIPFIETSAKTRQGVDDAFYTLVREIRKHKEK
Sequence of KRas G12R (P01116 1-169 isoform P01116-2 G12R): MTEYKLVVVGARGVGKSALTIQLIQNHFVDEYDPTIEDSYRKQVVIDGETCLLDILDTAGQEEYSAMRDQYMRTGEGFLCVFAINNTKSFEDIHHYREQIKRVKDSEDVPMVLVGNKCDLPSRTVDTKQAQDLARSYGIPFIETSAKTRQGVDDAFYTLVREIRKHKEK
Sequence of KRas G12A (P01116 1-169 isoform P01116-2 G12A): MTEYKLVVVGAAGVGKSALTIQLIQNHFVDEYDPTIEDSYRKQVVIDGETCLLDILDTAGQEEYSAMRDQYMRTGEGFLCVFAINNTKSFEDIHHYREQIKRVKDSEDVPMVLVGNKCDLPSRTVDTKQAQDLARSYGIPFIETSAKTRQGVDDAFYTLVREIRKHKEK
Sequence of KRas G12D (P01116 1-169 isoform P01116-2 G12D): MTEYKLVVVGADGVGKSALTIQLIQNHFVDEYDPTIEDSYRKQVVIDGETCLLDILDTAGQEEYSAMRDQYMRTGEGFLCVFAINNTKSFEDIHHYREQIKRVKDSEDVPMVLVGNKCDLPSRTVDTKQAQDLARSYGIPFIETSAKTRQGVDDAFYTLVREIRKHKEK

For orientation: inhibition means the change of the read-out against control, counted positive when it falls. The IC50 is the concentration at which inhibition is half-maximal. A lower IC50 goes with greater potency. With `CCNC(=O)c1nn2c(c1Cl)CN(c1nc(OC[C@@]34CCCN3C[C@H](F)C4)nc3c1CCN(c1cc(O)cc4ccc(F)c(CC)c14)C3)CCC2` [Example 367, 3-chloro-N-ethyl-5-(7-(8-ethyl-7-fluoro-3-hydroxynaphthalen-1-yl)-2-(((2R,7aS)-2-fluorohexahydro-1H-pyrrolizin-7a-yl)methoxy)-5,6,7,8-tetrahydropyrido[3,4-d]pyrimidin-4-yl)-5,6,7,8-tetrahydro-4H-pyrazolo[1,5-a][1,4]diazepine-2-carboxamide], the inhibition at 0.01 µM in test [1] stood at 98%; in test [2], 99%; in test [3], 100%; in test [4] it was 99%; in test [5] it was 98%; in test [6] it was 99%. The IC50 turned out to be 4.2 nM in test [7]; 2100 nM in test [8]; 2 nM in test [9]; 3 nM in test [10]; 5 nM in [11]; 24 nM in test [12]. The IC50 was 40 nM in test [13]; 1 nM in test [14]; under 2 nM in test [15]; under 2 nM in test [16]; under 2 nM in test [17]. The inhibition at 0.1 µM in test [11] came to 85%; in [12] (NCI-H460, single point at 100 nM, 3 hrs compound incubation), 83%; in test [13] (HCT-116, single point at 100 nM, 3 hrs compound incubation) it was 62%; in test [14], 101%.
For the compound `CCc1c(F)ccc2cc(O)cc(N3CCc4c(nc(OC[C@@]56CCCN5C[C@H](F)C6)nc4N4CCCn5nc(C(=O)N(C)C)c(OC)c5C4)C3)c12` [Example 370, 5-(7-(8-ethyl-7-fluoro-3-hydroxynaphthalen-1-yl)-2-(((2R,7aS)-2-fluorohexahydro-1H-pyrrolizin-7a-yl)methoxy)-5,6,7,8-tetrahydropyrido[3,4-d]pyrimidin-4-yl)-3-methoxy-N,N-dimethyl-5,6,7,8-tetrahydro-4H-pyrazolo[1,5-a][1,4]diazepine-2-carboxamide], the inhibition at 0.01 µM in [1] was determined as 97%; in test [2], 97%; in [3], 99%; in [4], 99%; in test [5] it was 98%; in [6], 98%. Also, the IC50 is 6.9 nM in test [7]; over 10000 nM in test [8]; 9 nM in test [9]; 20 nM in test [10]; 36 nM in [11]; 43 nM in test [12]. The IC50 in test [13] was 132 nM; in test [14] it was 6 nM; in [15], under 2 nM; in test [16], under 2 nM; in [17], under 2 nM. Besides, the results for the inhibition at 0.1 µM in test [11] and in test [14] were 65% and 97%, respectively.
On to `CCc1c(F)ccc2cc(O)cc(N3CCc4c(nc(OC[C@@]56CCCN5C[C@H](F)C6)nc4N4CCCn5nc(C(=O)NC(C)C)c(C)c5C4)C3)c12` [Example 371, 5-(7-(8-ethyl-7-fluoro-3-hydroxynaphthalen-1-yl)-2-(((2R,7aS)-2-fluorohexahydro-1H-pyrrolizin-7a-yl)methoxy)-5,6,7,8-tetrahydropyrido[3,4-d]pyrimidin-4-yl)-N-isopropyl-3-methyl-5,6,7,8-tetrahydro-4H-pyrazolo[1,5-a][1,4]diazepine-2-carboxamide], for which the inhibition at 0.01 µM in [1] came out at 86%; in test [2] it was 91%; in [3], 98%; in test [4], 96%; in test [5] it was 87%; in [6] it was 89%. Moreover, the IC50 worked out at 9.9 nM in test [7]; 5080 nM in test [8]; 3 nM in [9]; 5 nM in test [10]; 9 nM in [11]; 35 nM in test [12]. For the same compound, the IC50 in [13] is 187 nM; in test [14], 3 nM; in test [15], 2 nM; in test [16] it was under 2 nM; in test [17], under 2 nM. The results for the inhibition at 0.1 µM in test [11] and in test [14] were 79% and 101%, respectively.
Consider `CCc1c(C(=O)N(C)C)nn2c1CN(c1nc(OC[C@@]34CCCN3C[C@H](F)C4)nc3c1CCN(c1cc(O)cc4ccc(F)c(CC)c14)C3)CCC2` [Example 372, 3-ethyl-5-(7-(8-ethyl-7-fluoro-3-hydroxynaphthalen-1-yl)-2-(((2R,7aS)-2-fluorohexahydro-1H-pyrrolizin-7a-yl)methoxy)-5,6,7,8-tetrahydropyrido[3,4-d]pyrimidin-4-yl)-N,N-dimethyl-5,6,7,8-tetrahydro-4H-pyrazolo[1,5-a][1,4]diazepine-2-carboxamide], for which the inhibition at 0.01 µM in test [1] worked out at 98%; in test [2] it was 99%; in [3], 99%; in test [4], 99%; in test [5], 98%; in test [6] it was 99%. In addition, the IC50 in test [7] was 3.1 nM; in test [8], 2010 nM; in [9], 2 nM; in test [10], 5 nM; in test [11], 10 nM; in test [12], 11 nM. The IC50 in test [13] was 54 nM; in [14], 2 nM; in [15], under 2 nM; in [16], under 2 nM; in [17], under 2 nM. Moreover, the inhibition at 0.1 µM in test [9] (ASPC1, single point at 100 nM, 3 hrs compound incubation) is 95%; in test [10] (NCI-H727, single point at 100 nM, 3 hrs compound incubation), 76%; in test [11] it was 72%; in [14], 104%.
Consider `CCc1c(F)ccc2cc(O)cc(N3CCc4c(nc(OC[C@@]56CCCN5C[C@H](F)C6)nc4N4CCCn5nc(C(=O)N(C)CCOCCOC)cc5C4)C3)c12` [Example 373, 5-(7-(8-ethyl-7-fluoro-3-hydroxynaphthalen-1-yl)-2-(((2R,7aS)-2-fluorohexahydro-1H-pyrrolizin-7a-yl)methoxy)-5,6,7,8-tetrahydropyrido[3,4-d]pyrimidin-4-yl)-N-(2-(2-methoxyethoxy)ethyl)-N-methyl-5,6,7,8-tetrahydro-4H-pyrazolo[1,5-a][1,4]diazepine-2-carboxamide], for which the inhibition at 0.01 µM is 96% in [1]; 96% in [2]; 99% in test [3]; 99% in test [4]; 96% in [5]; 97% in test [6]. The IC50 in test [7] was 6.6 nM; in test [8], 4150 nM; in test [9], 2 nM; in [10], 4 nM; in test [11] it was 11 nM; in test [12], 14 nM. Also, the IC50 in test [13] was 48 nM; in test [14], 2 nM; in test [15], under 2 nM; in test [16] it was under 2 nM; in [17], under 2 nM. Further, the inhibition at 0.1 µM was 72% in test [11] and 93% in test [14].
